PubChem BioAssay AID248 (DTP/NCI, 2004)
Where “and” joins values, the source holds several entries; their conditions need not be identical. Equal entries are not always repeated. Toxic doses and inconclusive results are not listed. Cut-off read from the data, not from the text of the source: active = T/C of 150% or more; inactive = T/C below 125%.

Test system: L1210 leukemia ip in BDF1 mice, survival T/C
Assay: NCI In Vivo Anticancer Drug Screen. Data for tumor model L1210 Leukemia (intraperitoneal) in B6D2F1 (BDF1) mice
Details: endpoint: mean survival time, higher = longer survival
How it was run: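 Antitumor effect is assessed in tumor-bearing animals. Survival in the compound arm is compared with a vehicle-dosed control arm and expressed as their quotient.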

[1] = dose: 50.0 mg/kg/injection, schedule: Q01DX009 (ip), vehicle: Klucel (hydroxypropylcellulose) (HPC)
[2] = dose: 100.0 mg/kg/injection, schedule: Q01DX001 (ip), vehicle: Klucel (hydroxypropylcellulose) (HPC)
[3] = dose: 200.0 mg/kg/injection, schedule: Q01DX001 (ip), vehicle: Klucel (hydroxypropylcellulose) (HPC)
[4] = dose: 100.0 mg/kg/injection, schedule: Q01DX001 (ip), vehicle: saline
[5] = dose: 200.0 mg/kg/injection, schedule: Q01DX001 (ip), vehicle: saline
[6] = dose: 400.0 mg/kg/injection, schedule: Q01DX001 (ip), vehicle: saline
[7] = dose: 100.0 mg/kg/injection, schedule: Q04DX003 (ip), vehicle: Klucel (hydroxypropylcellulose) (HPC)
[8] = dose: 200.0 mg/kg/injection, schedule: Q04DX003 (ip), vehicle: Klucel (hydroxypropylcellulose) (HPC)
[9] = dose: 400.0 mg/kg/injection, schedule: Q01DX001 (ip), vehicle: Klucel (hydroxypropylcellulose) (HPC)
[10] = dose: 400.0 mg/kg/injection, schedule: Q04DX003 (ip), vehicle: Klucel (hydroxypropylcellulose) (HPC)
[11] = dose: 100.0 mg/kg/injection, schedule: Q01DX009 (ip), vehicle: saline
[12] = dose: 200.0 mg/kg/injection, schedule: Q01DX009 (ip), vehicle: saline
[13] = dose: 400.0 mg/kg/injection, schedule: Q01DX009 (ip), vehicle: saline

Measured: T/C

COCCOC(=O)C(=O)OCCOC
inactive: [1] 95 % of control | [2] 97 % of control | dose: 100.0 mg/kg/injection, schedule: Q01DX009 (ip), vehicle: Klucel (hydroxypropylcellulose) (HPC) 97 % of control | [3] 90 % of control | dose: 200.0 mg/kg/injection, schedule: Q01DX009 (ip), vehicle: Klucel (hydroxypropylcellulose) (HPC) 93 % of control

Cn1ncc2[nH]c(=O)n(OS(=O)(=O)c3ccccc3)c(=O)c21
inactive: dose: 50.0 mg/kg/injection, schedule: Q01DX001 (ip), vehicle: saline 100 % of control | [4] 96 % of control | [5] 96 % of control | [6] 87 % of control

CC(C)(C)C1CCC(N=C(N)CS)CC1 (stereo not drawn)
inactive: dose: 1.5 mg/kg/injection, schedule: Q01DX001 (ip), vehicle: carboxymethylcellulose (CMC) 98 % of control | dose: 3.0 mg/kg/injection, schedule: Q01DX001 (ip), vehicle: carboxymethylcellulose (CMC) 98 % of control | dose: 6.0 mg/kg/injection, schedule: Q01DX001 (ip), vehicle: carboxymethylcellulose (CMC) 95 % of control

CC1CC(C)(C)OC(C)(C)O1 (stereo not drawn)
inactive: dose: 50.0 mg/kg/injection, schedule: Q01DX009 (ip), vehicle: acetone 90 % of control and 95 % of control | dose: 100.0 mg/kg/injection, schedule: Q01DX009 (ip), vehicle: acetone 97 % of control and 94 % of control | dose: 100.0 mg/kg/injection, schedule: Q04DX002 (ip), vehicle: saline with Tween-80 101 % of control | dose: 100.0 mg/kg/injection, schedule: Q04DX003 (ip), vehicle: acetone 104 % of control and 109 % of control | dose: 200.0 mg/kg/injection, schedule: Q01DX009 (ip), vehicle: acetone 94 % of control and 95 % of control | dose: 200.0 mg/kg/injection, schedule: Q04DX002 (ip), vehicle: saline with Tween-80 93 % of control | dose: 200.0 mg/kg/injection, schedule: Q04DX003 (ip), vehicle: acetone 95 % of control and 104 % of control | dose: 400.0 mg/kg/injection, schedule: Q04DX002 (ip), vehicle: saline with Tween-80 104 % of control | dose: 400.0 mg/kg/injection, schedule: Q04DX003 (ip), vehicle: acetone 94 % of control and 95 % of control

CNCCOCc1ccccc1
inactive: [4] 96 % of control | [5] 91 % of control

COc1cc(C)c2c(c1)C(=O)OC2=O
inactive: [2] 105 % of control | [7] 100 % of control | [3] 108 % of control | [8] 103 % of control | [9] 111 % of control | [10] 97 % of control

Cc1c[n+]([O-])cc(C)c1N=Nc1ccc(N(C)C)cc1
inactive: dose: 100.0 mg/kg/injection, schedule: Q04DX003 (ip), vehicle: saline with Tween-80 103 % of control | dose: 200.0 mg/kg/injection, schedule: Q04DX003 (ip), vehicle: saline with Tween-80 96 % of control

O=C(O)CCSCCC(=O)O
inactive: dose: 75.0 mg/kg/injection, schedule: Q01DX009 (ip), vehicle: Klucel (hydroxypropylcellulose) (HPC) 92 % of control | dose: 75.0 mg/kg/injection, schedule: Q04DX003 (ip), vehicle: saline 100 % of control | dose: 150.0 mg/kg/injection, schedule: Q01DX009 (ip), vehicle: Klucel (hydroxypropylcellulose) (HPC) 92 % of control | dose: 150.0 mg/kg/injection, schedule: Q04DX003 (ip), vehicle: saline 100 % of control | dose: 300.0 mg/kg/injection, schedule: Q01DX009 (ip), vehicle: Klucel (hydroxypropylcellulose) (HPC) 94 % of control | dose: 300.0 mg/kg/injection, schedule: Q04DX003 (ip), vehicle: saline 102 % of control

COc1ccc(OC)c(C2C(C#N)C(C=O)NC(C=O)C2C#N)c1 (stereo not drawn)
inactive: dose: 100.0 mg/kg/injection, schedule: Q04DX003 (ip), vehicle: other 107 % of control | dose: 200.0 mg/kg/injection, schedule: Q04DX003 (ip), vehicle: other 109 % of control | dose: 400.0 mg/kg/injection, schedule: Q04DX003 (ip), vehicle: other 107 % of control

COC(=O)C1CC2C(Cl)=C(Cl)C1(Cl)C2(Cl)Cl (stereo not drawn)
inactive: [11] 107 % of control | [12] 123 % of control | [13] 102 % of control

CCCCCCCCCCCCCCCC[n+]1ccc(C#N)cc1
inactive: dose: 1.25 mg/kg/injection, schedule: Q01DX009 (ip), vehicle: saline 89 % of control | dose: 2.5 mg/kg/injection, schedule: Q01DX009 (ip), vehicle: saline 97 % of control | dose: 2.5 mg/kg/injection, schedule: Q04DX003 (ip), vehicle: saline 97 % of control | dose: 5.0 mg/kg/injection, schedule: Q01DX009 (ip), vehicle: saline 94 % of control | dose: 5.0 mg/kg/injection, schedule: Q04DX003 (ip), vehicle: saline 101 % of control | dose: 10.0 mg/kg/injection, schedule: Q01DX001 (ip), vehicle: saline 90 % of control | dose: 10.0 mg/kg/injection, schedule: Q04DX003 (ip), vehicle: saline 94 % of control

CC(=O)OCC1OC(N2C(=O)/C(=C/c3c(Cl)cccc3Cl)SC2=S)C(OC(C)=O)C(OC(C)=O)C1OC(C)=O (stereo not drawn)
inactive: dose: 25.0 mg/kg/injection, schedule: Q01DX005 (ip), vehicle: other 103 % of control | dose: 50.0 mg/kg/injection, schedule: Q01DX005 (ip), vehicle: other 101 % of control | dose: 100.0 mg/kg/injection, schedule: Q01DX005 (ip), vehicle: other 104 % of control | dose: 200.0 mg/kg/injection, schedule: Q01DX005 (ip), vehicle: other 93 % of control

CCCCCSC
inactive: [11] 93 % of control | dose: 100.0 mg/kg/injection, schedule: Q04DX003 (ip), vehicle: saline 102 % of control | [12] 95 % of control | dose: 200.0 mg/kg/injection, schedule: Q04DX003 (ip), vehicle: saline 105 % of control | [13] 88 % of control | dose: 400.0 mg/kg/injection, schedule: Q04DX003 (ip), vehicle: saline 100 % of control

O=C(CCN1CC1)OCCCl
inactive: dose: 50.0 mg/kg/injection, schedule: Q01DX001 (ip), vehicle: Klucel (hydroxypropylcellulose) (HPC) 112 % of control | [2] 106 % of control | [3] 101 % of control | [9] 111 % of control

Cc1ccc(C)c(NC(=O)C2CCCCC2C(=O)O)c1 (stereo not drawn)
inactive: dose: 100.0 mg/kg/injection, schedule: Q04DX002 (ip), vehicle: Klucel (hydroxypropylcellulose) (HPC) 118 % of control | dose: 200.0 mg/kg/injection, schedule: Q04DX002 (ip), vehicle: Klucel (hydroxypropylcellulose) (HPC) 96 % of control | dose: 400.0 mg/kg/injection, schedule: Q04DX002 (ip), vehicle: Klucel (hydroxypropylcellulose) (HPC) 103 % of control

C(=C\c1nc2ccccc2nc1/C=C/c1ccc2c(c1)OCO2)/c1ccc2c(c1)OCO2
inactive: dose: 12.5 mg/kg/injection, schedule: Q01DX009 (ip), vehicle: Klucel (hydroxypropylcellulose) (HPC) 95 % of control | dose: 25.0 mg/kg/injection, schedule: Q01DX009 (ip), vehicle: Klucel (hydroxypropylcellulose) (HPC) 92 % of control | [1] 100 % of control | [7] 102 % of control | [8] 96 % of control | dose: 400.0 mg/kg/injection, schedule: Q01DX009 (ip), vehicle: Klucel (hydroxypropylcellulose) (HPC) 86 % of control | [10] 95 % of control

NC(=O)NCCO
inactive: [4] 98 % of control | [5] 106 % of control | [6] 98 % of control

Cc1ccc(NC(N)=S)nc1
inactive: [7] 100 % of control | [8] 94 % of control | [10] 99 % of control

C#C/C(=N\Nc1ccc([N+](=O)[O-])cc1[N+](=O)[O-])c1ccccc1
inactive: dose: 75.0 mg/kg/injection, schedule: Q04DX002 (ip), vehicle: saline with Tween-80 91 % of control | dose: 150.0 mg/kg/injection, schedule: Q04DX002 (ip), vehicle: saline with Tween-80 102 % of control | dose: 300.0 mg/kg/injection, schedule: Q04DX002 (ip), vehicle: saline with Tween-80 88 % of control

Cc1ccc(C)c(N=Nc2ccc(O)cc2)c1
inactive: dose: 100.0 mg/kg/injection, schedule: Q01DX009 (ip), vehicle: saline with Tween-80 94 % of control | dose: 200.0 mg/kg/injection, schedule: Q01DX009 (ip), vehicle: saline with Tween-80 93 % of control

CC(C)=CCNc1ncnc2c1nnn2C1OC(CO)C(O)C1O (stereo not drawn)
inactive: dose: 100.0 mg/kg/injection, schedule: Q01DX001 (ip), vehicle: water 105 % of control | dose: 200.0 mg/kg/injection, schedule: Q01DX001 (ip), vehicle: water 101 % of control | dose: 400.0 mg/kg/injection, schedule: Q01DX001 (ip), vehicle: water 101 % of control
